According to ChEMBL document CHEMBL5214892, “Antitumor potential of the protein phosphatase inhibitor, cantharidin, and selected derivatives” (Bioorg Med Chem, 2021):
pIC50: −log10 of the molar value. Values after ≈ are worked out from the molar mass of the structure shown.

Legend:
[1] = Inhibition of PP1 (unknown origin); set-up: species or system Homo sapiens
[2] = Inhibition of bovine brain PP2A assessed as dephosphorylation of substrate using P32 labelled peptide DLDVPIPGRFDRRVSVAAE as substrate by radiometric analysis; set-up: species or system Bos taurus
[3] = Inhibition of rabbit liver PP2C assessed as dephosphorylation of substrate using P32 labelled peptide as substrate by radiometric analysis; set-up: species or system Oryctolagus cuniculus
[4] = Toxicity in mouse assessed as lethal dose administered intraperitoneally; conditions: in vivo, route ip
[5] = test system: HepG2; assay: Anticancer activity against human HepG2 cells assessed as cell growth inhibition measured after 72 hrs by MTT assay; type: functional, cell-based; conditions: HepG2, 72 h
[6] = test system: HL-60; assay: Anticancer activity against human HL-60 cells assessed as cell growth inhibition measured after 72 hrs by MTT assay; type: functional, cell-based; conditions: HL-60, 72 h
[7] = test system: KB 3-1; assay: Anticancer activity against human KB 3-1 cells assessed as cell growth inhibition measured after 72 hrs by MTT assay; type: functional, cell-based; conditions: KB 3-1, 72 h
[8] = organism: Homo sapiens; assay: Anticancer activity against human Liver cancer cell assessed as cell growth inhibition; type: functional
[9] = Anticancer activity against human oral cancer cell assessed as cell growth inhibition; type: functional, cell-based
[10] = Anticancer activity against human leukaemia cell line assessed as cell growth inhibition; type: functional, cell-based
[11] = test system: HepG2; assay: Anticancer activity against human HepG2 cells assessed as cell growth inhibition incubated for 2 days by MTT assay; type: functional, cell-based; conditions: HepG2, 48 h
[12] = test system: Hep 3B2; assay: Anticancer activity against human Hep3B cells assessed as cell growth inhibition incubated for 48 hrs by MTT assay; type: functional, cell-based
[13] = Inhibition of PP (unknown origin); set-up: species or system Homo sapiens
[14] = test system: SMMC-7721; assay: Anticancer activity against human SMMC-7721 cell assessed as cell growth inhibition measured after 24 to 48 hrs by SRB colorimetry assay; type: functional, cell-based
[15] = test system: Bel-7402; assay: Anticancer activity against human Bel-7402 cell assessed as cell growth inhibition measured after 24 to 48 hrs by SRB colorimetry assay; type: functional, cell-based
[16] = test system: Colon cancer cell line; assay: Anticancer activity against human Colon carcinoma cell assessed as cell growth inhibition; type: functional, cell-based
[17] = test system: HT-29; assay: Anticancer activity against human HT-29 cells assessed as cell growth inhibition measured after 72 hrs by MTT assay; type: functional, cell-based; conditions: HT-29, 72 h
[18] = test system: MCF7; assay: Anticancer activity against human MCF7 cells assessed as cell growth inhibition measured after 72 hrs by MTT assay; type: functional, cell-based; conditions: MCF7, 72 h
[19] = test system: A-431; assay: Anticancer activity against human A-431 cells assessed as cell growth inhibition measured after 72 hrs by MTT assay; type: functional, cell-based; conditions: A-431, 72 h
[20] = test system: DU-145; assay: Anticancer activity against human DU-145 cells assessed as cell growth inhibition measured after 72 hrs by MTT assay; type: functional, cell-based; conditions: DU-145, 72 h
[21] = test system: BE(2)-C; assay: Anticancer activity against human BE2C cells assessed as cell growth inhibition measured after 72 hrs by MTT assay; type: functional, cell-based
[22] = test system: MIA PaCa-2; assay: Anticancer activity against human MIA PaCa-2 cells assessed as cell growth inhibition measured after 72 hrs by MTT assay; type: functional, cell-based; conditions: MIA PaCa-2, 72 h
[23] = test system: Hep 3B2; assay: Anticancer activity against human Hep3B cells assessed as cell growth inhibition incubated for 48 hrs by MTS assay; type: functional, cell-based
[24] = Cytotoxicity against human Bone marrow cell assessed as cell growth inhibition by MTS assay; type: toxicity, cell-based; conditions: bone marrow cells
[25] = test system: Lung cancer cell line; assay: Anticancer activity against human Lung cancer cell line assessed as cell growth inhibition; type: functional, cell-based
[26] = Homo sapiens, Liver cancer cell

Row | SMILES | pIC50 [1] | pIC50 [2] | pIC50 [3] | LD50 [4] [mg/kg] | pIC50 [5] | pIC50 [6] | pIC50 [7] | pIC50 [8, 26] | further results
1 | C[C@]1(C(=O)O)[C@@H]2CC[C@@H](O2)[C@@]1(C)C(=O)O | 6.25 | 7.30 | < 3.00 | 1.8 | 3.66 | 3.99 | 4.10 | < 4.30 | pIC50 [9]: < 4.30; pIC50 [10]: < 4.30
2 | O=C(O)[C@@H]1[C@H](C(=O)O)[C@H]2CC[C@@H]1O2 [listing 1 of 2 here] |  |  |  |  |  |  |  |  | pIC50 ([8]; liver cancer cell): 4.82; pIC50 [11]: 4.81
3 | CN1C(=O)[C@@]2(C)[C@@H]3CC[C@@H](O3)[C@@]2(C)C1=O |  |  |  |  |  |  |  |  | pIC50 [12]: < 2.70
4 | O=C1OC[C@@H]2[C@H]1[C@H]1CC[C@@H]2O1 | 4.21 | 4.00 |  |  | < 3.70 | < 3.70 | 3.95 |  | 
5 | C[C@@]12COC(=O)[C@]1(C)[C@H]1CC[C@@H]2O1 | < 3.70 | < 3.70 |  |  | < 3.70 | < 3.70 | < 3.70 |  | 
6 | C[C@@]12C(=O)OC(=O)[C@@H]1[C@H]1CC[C@@H]2O1 | 6.18 | 6.92 | < 3.00 |  |  |  |  |  | pIC50 [13]: > 6.00
7 | O=C(O)[C@@H]1[C@H](C(=O)O)[C@H]2CC[C@@H]1O2 [listing 2 of 2 here] |  |  |  |  |  |  |  | 4.92 | pIC50 [14]: 4.90; pIC50 [15]: 4.90
8 | O=C(NCc1ccc(-c2ccccc2)cc1)C(CNC(=O)[C@H]1[C@@H](C(=O)O)[C@@H]2CC[C@H]1O2)Cc1ccco1 (stereo not given in full) |  |  |  |  |  |  |  |  | pIC50 [16]: 7.82; pIC50 [17]: 7.82; pIC50 [18]: 7.57; pIC50 [19]: 7.35; pIC50 [20]: 7.59; pIC50 [21]: 7.54; pIC50 [22]: 7.25
9 | C[C@@]12C(=O)N(c3ncc([N+](=O)[O-])s3)C(=O)[C@]1(C)[C@H]1CC[C@@H]2O1 |  |  |  |  |  |  |  | > 6.00 | pIC50 [12]: 6.40
10 | C[C@@]12C(=O)N(c3nc4ccc(OC(F)(F)F)cc4s3)C(=O)[C@]1(C)[C@H]1CC[C@@H]2O1 [CANTHARIDIMIDE] |  |  |  |  |  |  |  | 5.19 | pIC50 [23]: 4.80; IC50 [24]: > 12.5 µg/mL
11 | C[C@@]12C(=O)OC(=O)[C@]1(C)[C@H]1CC[C@@H]2O1 [CANTHARIDIN] | 6.33 | 7.40 | < 3.00 | 1 | 4.72 | 5.57 | 5.57 | 5.70 | pIC50 [16]: 5.70; pIC50 [25]: 5.70; pIC50 [9]: 5.70; pIC50 [10]: 5.70; IC50 [24]: 6.5 µg/mL (≈ 33.1 µM)
12 | O=C1OC(=O)C2C3CCC(O3)C12 (stereo not given) [DEMETHYL-CANTHARIDIN] | 5.70 | 6.43 |  | 4 | 3.67 | 4.80 | 4.16 | < 4.82 | pIC50 [16]: < 4.82; pIC50 [9]: < 4.82; pIC50 [10]: < 4.82
13 | O=C(O)[C@@H]1[C@H](C(=O)O)[C@H]2CC[C@@H]1O2 [ENDOTHALL] | 5.30 | 6.01 | < 3.00 | 14 |  |  |  |  | pIC50 [13]: < 6.05
